In the OligoGym collection:
Several values for one entry are separate records, joined by “and”; a condition that tells them apart may be missing. Equal values may be shown once. After the bases stand the sugars from the 5' end (letter, count) and the backbone: PS all phosphorothioate, else s phosphorothioate and o phosphodiester by linkage. Methylation of C is not given here. e = 2'-O-(2-methoxyethyl) (MOE); k = constrained ethyl (cEt); d = 2'-deoxy (DNA)

Molecular target: KRAS
Details: ASO

For “GATTGTGCTGAGCTTG (sugars kkdddddddddkekek, PS)”, the target mRNA inhibition (A431, 2 µM) was 45%.

With “GATTGTGCTGAGCTTG (sugars kkddddddddkekekk, PS)” the target mRNA inhibition (A431, 2 µM) was 14%.

“GATTTGTCAGCAGGAC (sugars kkddddddddkekekk, PS)” showed a target mRNA inhibition (A431, 2 µM) of 0%.

Work on GCTCTTGATTTGTCAG (sugars k3 d10 k3, PS) yielded a target mRNA inhibition (A431, 2 µM) of 23%.

“GGAGTCTTTATAGTAA (sugars kkddddddddddkeke, PS)” gave a target mRNA inhibition (A431, 0.185 µM) of 27%, a target mRNA inhibition (A431, 0.556 µM) of 45% and a target mRNA inhibition (A431, 1.667 µM) of 57%. The target mRNA inhibition (A431, 2 µM) was 55% and the target mRNA inhibition (A431, 5 µM) was 82%.

In the case of “GGAGTCTTTATAGTAA (sugars kkddddddddkekekk, PS)”, the target mRNA inhibition (A431, 2 µM) is reported as 25%.

GGCAAGATGACACTAA (sugars k3 d10 k3, PS) was tested, and the target mRNA inhibition (A431, 2 µM) was 30%.

For GGGAATTACAAGTATT (sugars k3 d10 k3, PS), the target mRNA inhibition (A431, 2 µM) was 28%.

Sequence GGTAAAAGCTAACAGT (sugars k3 d10 k3, PS) has a target mRNA inhibition (A431, 2 µM) of 49%.

Work on GGTGTAACATAGGTTA (sugars k3 d10 k3, PS) yielded a target mRNA inhibition (A431, 0.185 µM) of 7%, a target mRNA inhibition (A431, 0.556 µM) of 29% and a target mRNA inhibition (A431, 1.667 µM) of 47%. For the same sequence, the target mRNA inhibition (A431, 2 µM) was 55% and 50% and the target mRNA inhibition (A431, 5 µM) was 67%.

In the case of GTAAAAGCTAACAGTC (sugars k3 d10 k3, PS), the target mRNA inhibition (A431, 2 µM) is reported as 21%.

“GTCCAGTGATACTTTC (sugars k3 d9 k3 e1, PS)” gave a target mRNA inhibition (A431, 2 µM) of 48%.

Sequence “GTCCAGTGATACTTTC (sugars kddddddddddkekek, PS)” has a target mRNA inhibition (A431, 2 µM) of 36%.

With “GTCCAGTGATACTTTC (sugars kkddddddddkekekk, PS)” the target mRNA inhibition (A431, 2 µM) was 22%.

GTGCAATGGTGACAAC (sugars k3 d10 k3, PS) gave a target mRNA inhibition (A431, 2 µM) of 38%.

Sequence “GTGTGACTCAGTTAAA (sugars kddddddddddkekek, PS)” has a target mRNA inhibition (A431, 2 µM) of 30%.

For “GTGTGACTCAGTTAAA (sugars kdddddddddkekeke, PS)”, the target mRNA inhibition (A431, 2 µM) was 25%.

For “GTGTTTATGCAATGTT (sugars kddddddddddkekek, PS)”, the target mRNA inhibition (A431, 2 µM) was 53%.

Sequence “GTGTTTATGCAATGTT (sugars kdddddddddkekeke, PS)” has a target mRNA inhibition (A431, 2 µM) of 41%.

In the case of “GTGTTTATGCAATGTT (sugars kkkddddddddkdkdk, PS)”, the target mRNA inhibition (A431, 0.125 µM) is reported as 70% and 58%, the target mRNA inhibition (A431, 0.185 µM) is reported as 27% and the target mRNA inhibition (A431, 0.556 µM) is reported as 47%. For the same sequence, the target mRNA inhibition (A431, 1.667 µM) was 73% and the target mRNA inhibition (A431, 5 µM) was 81%.

“GTTTATGCAATGTTAA (sugars kddddddddddkekek, PS)” gave a target mRNA inhibition (A431, 2 µM) of 37%.

Work on “GTTTATGCAATGTTAA (sugars kkddddddddkekekk, PS)” yielded a target mRNA inhibition (A431, 0.185 µM) of 27%, a target mRNA inhibition (A431, 0.556 µM) of 46% and a target mRNA inhibition (A431, 1.667 µM) of 45%. For the same sequence, the target mRNA inhibition (A431, 2 µM) was 57% and the target mRNA inhibition (A431, 5 µM) was 79%.

Work on TAATCCATTTATGTGA (sugars k3 d10 k3, PS) yielded a target mRNA inhibition (A431, 2 µM) of 31%.

Work on TAATGTCACAAGCAGA (sugars k3 d10 k3, PS) yielded a target mRNA inhibition (A431, 2 µM) of 52%.

Work on TAGGAGTCTTTATAGT (sugars k3 d10 k3, PS) yielded a target mRNA inhibition (A431, 2 µM) of 41%.

In the case of “TAGTGATTAGGTCAAA (sugars kkdddddddddkdkdk, PS)”, the target mRNA inhibition (A431, 2 µM) is reported as 25%.

In the case of TATAATAATCCCCATT (sugars k3 d10 k3, PS), the target mRNA inhibition (A431, 2 µM) is reported as 7%.

In the case of TCAAAGTTCACATAAA (sugars k3 d10 k3, PS), the target mRNA inhibition (A431, 2 µM) is reported as 19%.

With TCATTGTTTAAAAAAA (sugars k3 d10 k3, PS) the target mRNA inhibition (A431, 2 µM) was 0%.

For “TCCAGTGATACTTTCA (sugars kkddddddddddkeke, PS)”, the target mRNA inhibition (A431, 2 µM) was 39%.

Work on “TCCATTTATGTGACTA (sugars kddddddddddkekek, PS)” yielded a target mRNA inhibition (A431, 2 µM) of 38%.

Work on “TCCATTTATGTGACTA (sugars kkkddddddddkdkdk, PS)” yielded a target mRNA inhibition (A431, 2 µM) of 16%.

Work on “TCCATTTATGTGACTA (sugars kkkddddddddkekek, PS)” yielded a target mRNA inhibition (A431, 2 µM) of 0%.

In the case of TCTGAATTAGTCTCCA (sugars k3 d10 k3, PS), the target mRNA inhibition (A431, 0.185 µM) is reported as 0%, the target mRNA inhibition (A431, 0.556 µM) is reported as 26% and the target mRNA inhibition (A431, 1.667 µM) is reported as 48%. The target mRNA inhibition (A431, 2 µM) was 62% and 50% and the target mRNA inhibition (A431, 5 µM) was 68%.

TCTTGTTGAGCTATCC (sugars k3 d10 k3, PS) was tested, and the target mRNA inhibition (A431, 0.185 µM) was 28% and 3%, the target mRNA inhibition (A431, 0.556 µM) was 38% and 29% and the target mRNA inhibition (A431, 1.667 µM) was 61% and 40%. For the same sequence, the target mRNA inhibition (A431, 2 µM) was 56% and the target mRNA inhibition (A431, 5 µM) was 82% and 64%.

TCTTTTAATGTCACAA (sugars k3 d10 k3, PS) was tested, and the target mRNA inhibition (A431, 2 µM) was 46%.

Sequence TGAAAAGTGTTTATGC (sugars k3 d10 k3, PS) has a target mRNA inhibition (A431, 2 µM) of 40%.

With “TGATTTGTCAGCAGGA (sugars kkkddddddddkekek, PS)” the target mRNA inhibition (A431, 2 µM) was 41%.

For TGCAATGTTAATTTAA (sugars k3 d10 k3, PS), the target mRNA inhibition (A431, 2 µM) was 13%.

Work on TGCTATAATAATCCCC (sugars k3 d10 k3, PS) yielded a target mRNA inhibition (A431, 2 µM) of 43%.

For “TGCTGTGAAACTCTCT (sugars kkddddddddddkeke, PS)”, the target mRNA inhibition (A431, 2 µM) was 30%.

For “TGCTGTGAAACTCTCT (sugars kkdddddddddkekek, PS)”, the target mRNA inhibition (A431, 2 µM) was 0%.

Work on “TGCTGTGAAACTCTCT (sugars kkddddddddkekekk, PS)” yielded a target mRNA inhibition (A431, 2 µM) of 5%.
